# Assay results: ChEMBL document CHEMBL5236606, “Synthesis, Structure-Activity Relationships, and In Vivo Evaluation of Novel C-17 Amine Derivatives Based on GSK3640254 as HIV-1 Maturation Inhibitors with Broad Spectrum Activity” (J Med Chem, 2022)
# Key:
# [1] = system: Human immunodeficiency virus 1; assay: Antiviral activity against wild type HIV-1 NLRepRlucP373S harboring V370A mutant infected in human MT2 cells assessed as inhibition of viral growth measured after 4 to 5 days by Dual luciferase reporter assay; type: functional, organism-based; conditions: Human immunodeficiency virus 1, NLRepRlucP373S
# [2] = Volume of distribution at steady state in Sprague-Dawley rat at 1 mg/kg, iv by LC-MS/MS analysis; type: ADME, organism-based; conditions: in vivo, read-out: Vdss
# [3] = Cytotoxicity against human MT2 cells assessed as reduction in cell viability; type: toxicity, cell-based
# [4] = system: Human immunodeficiency virus 1; assay: Antiviral activity against wild type HIV-1 NLRepRlucP373S harboring deltaV370 mutant infected in human MT2 cells assessed as inhibition of viral growth measured after 4 to 5 days by Dual luciferase reporter assay; type: functional, organism-based; conditions: Human immunodeficiency virus 1, NLRepRlucP373S
# [5] = system: Human immunodeficiency virus 1; assay: Antiviral activity against wild type HIV-1 NLRepRlucP373S infected in human MT2 cells assessed as inhibition of viral growth measured after 4 to 5 days in presence of 10% FBS and 40% human serum supplemented with 27 mg/mL of human serum albumin by Dual luciferase reporter assay; type: functional, organism-based; conditions: Human immunodeficiency virus 1, NLRepRlucP373S
# [6] = system: Human immunodeficiency virus 1; assay: Antiviral activity against wild type HIV-1 NLRepRlucP373S harboring T332S/V362I/prR41G mutant infected in human MT2 cells assessed as inhibition of viral growth measured after 4 to 5 days by Dual luciferase reporter assay; type: functional, organism-based; conditions: Human immunodeficiency virus 1, NLRepRlucP373S
# [7] = Fold resistance, ratio of EC50 for antiviral activity against wild type HIV-1 NLRepRlucP373S infected in human MT2 cells assessed as inhibition of viral growth in presence of 10% FBS and 40% human serum supplemented with 27mg/mL of human serum albumin to EC50 for antiviral activity against wild type HIV-1 NLRepRlucP373S infected in human MT2 cells assessed as inhibition of viral growth; type: functional, Human immunodeficiency virus 1
# [8] = system: Human immunodeficiency virus 1; assay: Antiviral activity against wild type HIV-1 NLRepRlucP373S harboring A326T/V362I/V370A mutant infected in human MT2 cells assessed as inhibition of viral growth measured after 4 to 5 days by Dual luciferase reporter assay; type: functional, organism-based; conditions: Human immunodeficiency virus 1, NLRepRlucP373S
# [9] = Half life in Sprague-Dawley rat at 1 mg/kg, iv by LC-MS/MS analysis; type: ADME, organism-based; conditions: in vivo
# [10] = Cmax in Sprague-Dawley rat at 5 mg/kg, po by LC-MS/MS analysis; type: ADME, organism-based; parameters: dose 5 mg/kg, route po; conditions: in vivo
# [11] = Solubility of compound in FaSSIF at pH 6.5; type: ADME
# [12] = AUCt in Sprague-Dawley rat at 5 mg/kg, po by LC-MS/MS analysis; type: ADME, organism-based; parameters: dose 5 mg/kg, route po; conditions: in vivo
# [13] = Clearance in Beagle dog at 1 mg/kg, iv by LC-MS/MS analysis; type: ADME, organism-based, Canis lupus familiaris; conditions: in vivo
# [14] = Volume of distribution at steady state in Beagle dog at 1 mg/kg, iv by LC-MS/MS analysis; type: ADME, organism-based, Canis lupus familiaris; conditions: in vivo, read-out: Vdss
# [15] = system: Human immunodeficiency virus 1; assay: Antiviral activity against wild type HIV-1 NLRepRlucP373S infected in human MT2 cells assessed as inhibition of viral growth measured after 4 to 5 days by Dual luciferase reporter assay; type: functional, organism-based; conditions: Human immunodeficiency virus 1, NLRepRlucP373S
# [16] = Cmax in Beagle dog at 5 mg/kg, po administered as spray-dried dispersion in 99.5% water/0.5% methocel E4M by LC-MS/MS analysis; type: ADME, organism-based, Canis lupus familiaris; parameters: dose 5 mg/kg, route po; conditions: in vivo
# [17] = Metabolic stability in rat liver microsomes assessed as half life at 0.5 uM in presence of NADPH by LC-MS/MS analysis; type: ADME, Microsome
# [18] = Solubility of the compound in FeSSIF at pH 5.0; type: ADME
# [19] = Oral bioavailability in Sprague-Dawley rat at 5 mg/kg by LC-MS/MS analysis; type: ADME, organism-based; conditions: in vivo
# [20] = MRT in Beagle dog at 1 mg/kg, iv by LC-MS/MS analysis; type: ADME, organism-based, Canis lupus familiaris; conditions: in vivo
# [21] = MRT in Sprague-Dawley rat at 1 mg/kg, iv by LC-MS/MS analysis; type: ADME, organism-based; conditions: in vivo
# [22] = AUCt in Beagle dog at 5 mg/kg, po administered as solution in 98% citrate buffer/2% sulfobutylether-beta-cyclodextrin by LC-MS/MS analysis; type: ADME, organism-based, Canis lupus familiaris; parameters: dose 5 mg/kg, route po; conditions: in vivo
# [23] = Half life in Beagle dog at 1 mg/kg, iv by LC-MS/MS analysis; type: ADME, organism-based, Canis lupus familiaris; conditions: in vivo
# [24] = Metabolic stability in human liver microsomes assessed as half life at 0.5 uM in presence of NADPH by LC-MS/MS analysis; type: ADME, Microsome
# [25] = AUCt in Beagle dog at 5 mg/kg, po administered as spray-dried dispersion in 99.5% water/0.5% methocel E4M by LC-MS/MS analysis; type: ADME, organism-based, Canis lupus familiaris; parameters: dose 5 mg/kg, route po; conditions: in vivo
# Albumin = Albumin (Homo sapiens, UniProt P02768); assay: Protein binding in human serum albumin assessed as fraction bound at 53 nM incubated for 1 hrs by ultracentrifugation method; type: ADME, cell-free; conditions: read-out: PPB (converted)
# [26] = Oral bioavailability in Beagle dog at 5 mg/kg administered as spray-dried dispersion in 99.5% water/0.5% methocel E4M by LC-MS/MS analysis; type: ADME, organism-based, Canis lupus familiaris; conditions: in vivo
# [27] = Oral bioavailability in Beagle dog at 5 mg/kg administered as solution in 98% citrate buffer/2% sulfobutylether-beta-cyclodextrin by LC-MS/MS analysis; type: ADME, organism-based, Canis lupus familiaris; conditions: in vivo
# [28] = Metabolic stability in dog liver microsomes assessed as half life at 0.5 uM in presence of NADPH by LC-MS/MS analysis; type: ADME, Canis lupus familiaris, Microsome
# [29] = Clearance in Sprague-Dawley rat at 1 mg/kg, iv by LC-MS/MS analysis; type: ADME, organism-based; conditions: in vivo
# [30] = system: Human immunodeficiency virus 1; assay: Antiviral activity against wild type HIV-1 NLRepRlucP373S harboring R361K/V362I/L363M mutant infected in human MT2 cells assessed as inhibition of viral growth measured after 4 to 5 days by Dual luciferase reporter assay; type: functional, organism-based; conditions: Human immunodeficiency virus 1, NLRepRlucP373S
# [31] = system: Human immunodeficiency virus 1; assay: Antiviral activity against wild type HIV-1 NLRepRlucP373S harboring V362I/V370A mutant infected in human MT2 cells assessed as inhibition of viral growth measured after 4 to 5 days by Dual luciferase reporter assay; type: functional, organism-based; conditions: Human immunodeficiency virus 1, NLRepRlucP373S
# [32] = Cmax in Beagle dog at 5 mg/kg, po administered as solution in 98% citrate buffer/2% sulfobutylether-beta-cyclodextrin by LC-MS/MS analysis; type: ADME, organism-based, Canis lupus familiaris; parameters: dose 5 mg/kg, route po; conditions: in vivo
# [33] = Protein binding in human plasma by ultracentrifugation method; type: ADME, cell-free; conditions: read-out: PPB
# Chain of Albumin (P02768 whole entry): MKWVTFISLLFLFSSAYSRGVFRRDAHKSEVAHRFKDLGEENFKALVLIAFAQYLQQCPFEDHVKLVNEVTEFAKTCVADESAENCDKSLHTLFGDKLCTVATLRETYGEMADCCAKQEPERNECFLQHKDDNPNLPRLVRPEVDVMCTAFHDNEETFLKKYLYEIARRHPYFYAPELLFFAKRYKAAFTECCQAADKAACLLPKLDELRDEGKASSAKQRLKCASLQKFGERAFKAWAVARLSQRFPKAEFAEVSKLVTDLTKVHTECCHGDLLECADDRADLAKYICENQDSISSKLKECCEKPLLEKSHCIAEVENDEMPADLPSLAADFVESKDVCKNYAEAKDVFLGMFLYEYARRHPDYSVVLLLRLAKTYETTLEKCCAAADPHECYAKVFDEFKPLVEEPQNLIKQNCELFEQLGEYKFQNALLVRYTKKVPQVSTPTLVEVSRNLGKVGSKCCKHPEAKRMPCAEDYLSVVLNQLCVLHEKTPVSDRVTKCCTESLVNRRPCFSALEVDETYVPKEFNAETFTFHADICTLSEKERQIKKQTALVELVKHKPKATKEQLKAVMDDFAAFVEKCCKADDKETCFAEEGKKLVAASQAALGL
SMILES,EC50 [1] [nM],Vd [2] [L/kg],CC50 [3] [nM],EC50 [4] [nM],EC50 [5] [nM],EC50 [6] [nM],fold change (FC) [7],EC50 [8] [nM],half-life [9] [h],Cmax [10] [nM],solubility [11] [µM],AUC(0-t) [12] [µM·h],EC50 [15] [nM],half-life at 0.5 µM [17] [h],MRT [21] [h],half-life at 0.5 µM [24] [h],"fraction unbound at 1 h, 0.053 µM (Albumin)",half-life at 0.5 µM [28] [h],clearance [29] [mL/min/kg],EC50 [30] [nM],further results
C=C(C)[C@@H]1CC[C@]2(C(=O)NCCOC)CC[C@]3(C)[C@H](CC[C@@H]4[C@@]5(C)CC=C(c6ccc(C(=O)O)cc6)C(C)(C)[C@@H]5CC[C@]43C)[C@@H]12,152,,,,,,,,,,,,,,,,,,,,
C=C(C)[C@@H]1CC[C@]2(NCC[C@]3(O)CC[C@@H](S(C)(=O)=O)CC3)CC[C@]3(C)[C@H](CC[C@@H]4[C@@]5(C)CC=C(C6=CC[C@](CF)(C(=O)O)CC6)C(C)(C)[C@@H]5CC[C@]43C)[C@@H]12,3,0.8,21000,5.1,9.3,6.4,5.8,4.3,4.2,830,21,8.11,1.6,1.42,3.8,1.38,0.11,> 2,3.5,4.5,clearance [13]: 0.38 mL/min/kg; Vd [14]: 0.31 L/kg; Cmax [16]: 1960 nM; solubility [18]: > 700 µM; bioavailability [19]: 24%; MRT [20]: 13.2 h; AUC(0-t) [22]: 23.3 µM·h; half-life [23]: 13.4 h; AUC(0-t) [25]: 35.3 µM·h; bioavailability [26]: 31%; bioavailability [27]: 21%; EC50 [31]: 2 nM; Cmax [32]: 1610 nM
C=C(C)[C@@H]1CC[C@]2(C(=O)NCCO)CC[C@]3(C)[C@H](CC[C@@H]4[C@@]5(C)CC=C(c6ccc(C(=O)O)cc6)C(C)(C)[C@@H]5CC[C@]43C)[C@@H]12,41,,,> 2000,,,,,,,,,,,,,,,,,
C=C(C)[C@@H]1CC[C@]2(C(=O)O)CC[C@]3(C)[C@H](CC[C@@H]4[C@@]5(C)CC[C@H](OC(=O)CC(C)(C)C(=O)O)C(C)(C)[C@@H]5CC[C@]43C)[C@@H]12 [BEVIRIMAT],,,,,,,97,,,,,,,,,,,,,,fraction unbound [33]: < 0.001
C=C(C)[C@@H]1CC[C@]2(NCCC3(O)COC3)CC[C@]3(C)[C@H](CC[C@@H]4[C@@]5(C)CC=C(C6=CC[C@](CF)(C(=O)O)CC6)C(C)(C)[C@@H]5CC[C@]43C)[C@@H]12,,1,18000,5.3,17,7,10,6.6,3.6,3860,4,27.3,1.7,1.33,2.7,> 2,0.12,> 2,6.5,6.1,solubility [18]: 32 µM; bioavailability [19]: 140%; EC50 [31]: 4.1 nM
C=C(C)[C@@H]1CC[C@]2(NCCN3CCS(=O)(=O)CC3)CC[C@]3(C)[C@H](CC[C@@H]4[C@@]5(C)CC=C(C6=CC[C@@](CF)(C(=O)O)CC6)C(C)(C)[C@@H]5CC[C@]43C)[C@@H]12,,1.8,15600,3,,7,4.6,26,,,,,3,1.45,4.9,1.83,0.14,1.47,6.5,3,
C=C(C)[C@@H]1CC[C@]2(NCC[C@]3(O)CC[C@](C)(O)CC3)CC[C@]3(C)[C@H](CC[C@@H]4[C@@]5(C)CC=C(C6=CC[C@](CF)(C(=O)O)CC6)C(C)(C)[C@@H]5CC[C@]43C)[C@@H]12,,0.8,16000,6,13,8.1,6.3,8,3.9,720,< 1,6.19,2.1,> 2,3.6,> 2,0.11,> 2,3.7,5.1,solubility [18]: > 480 µM; bioavailability [19]: 20%; EC50 [31]: 3.8 nM
